Laboratory results taken from patent US11214594B2, “Antimicrobial peptide having synergistic antibacterial effect with antibiotics on multidrug resistant bacteria, and use thereof” (priority 2016, dated 2022).
Converted amounts (≈) assume the structure as drawn. Where a SMILES comes first, the peptide text is derived from it.

Columns and labels:
E. coli [1] = assay: microbe, parasite or virus in culture; assay type: cell-based, Escherichia coli; conditions: 16 h
How it was run: (§1)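 MIC read-out = lowest peptide level with no bacterial proliferation. Strains diluted in MH medium to 2×10^6 CFU; peptide twofold serial dilutions in MH added 1:1 in microtiter wells.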

MDREC 1229 [2] = assay: microbe, parasite or virus in culture; assay type: cell-based, Escherichia coli
How it was run: as §1

MDRAB 12036 = assay type: cell-based, Acinetobacter baumannii
How it was run: as §1

MDRST 8007 = assay: Minimal inhibitory concentration (MIC), single agent; assay type: cell-based, Salmonella typhimurium; conditions: agent alone
How it was run: as §1

B. subtilis = assay: microbe, parasite or virus in culture; assay type: cell-based, Bacillus subtilis
How it was run: as §1

S. aureus = assay: microbe, parasite or virus in culture; assay type: cell-based, Staphylococcus aureus
How it was run: as §1

E. coli [3] = assay: MIC of antibiotic during combined treatment with antimicrobial peptide; assay type: cell-based, Escherichia coli; conditions: for Antibiotic MIC, Erythromycin / Antibiotic MIC, Linezolid / Antibiotic MIC, Vancomycin: E. coli
How it was run: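 First, antibiotic solution is diluted with MH medium; next, the dilution is dispensed into wells containing peptide; finally, the orientation is swapped and MIC of each mixture determined.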

MDREC 1229 [4] = assay: as above; assay type: cell-based, Escherichia coli
How it was run: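 Broth microdilution in MH medium; strains were diluted to 2×10^6 CFU per ml before plating. Peptide was serially diluted stepwise at 2:1 starting from its MIC, and MH-diluted antibiotic was then added to determine MIC. The reversed arrangement was also tested.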

[5] = peptide treatment concentration 1 μg/ml
[6] = peptide treatment concentration 2 μg/ml
[7] = peptide treatment concentration 4 μg/ml
[8] = peptide treatment concentration 6 μg/ml
[9] = peptide treatment concentration 8 μg/ml
[10] = peptide treatment concentration 16 μg/ml
[11] = peptide treatment concentration 32 μg/ml
[12] = peptide treatment concentration 64 μg/ml

In the case of `CC[C@H](C)[C@H](NC(=O)[C@H](CCCCN)NC(=O)[C@H](Cc1c[nH]c2ccccc12)NC(=O)[C@@H](N)CCCNC(=N)N)C(=O)N[C@@H](Cc1ccccc1)C(=O)N[C@@H](CCCCN)C(=O)N[C@@H](CCCCN)C(=O)N[C@H](C(=O)N1CCC[C@H]1C(=O)N[C@@H](CCCCN)C(=O)N[C@@H](Cc1ccccc1)C(=O)N[C@@H](CC(C)C)C(=O)N[C@@H](Cc1c[nH]cn1)C(=O)N[C@@H](CO)C(=O)N[C@@H](CC(C)C)C(=O)N[C@@H](CCCCN)C(=O)N[C@@H](CCCCN)C(=O)N[C@@H](Cc1ccccc1)C(N)=O)[C@@H](C)CC` [PapMA-6, RWK IFK KIP KFL HSL KKF-NH2] (H-RWKIFKKIPKFLHSLKKF-NH2; N-terminus assumed), the “Minimal inhibitory concentration MIC” value (E. coli [1]) was 64 µg/mL (≈ 27.3 µM), the “Minimal inhibitory concentration MIC” value (MDREC 1229 [2]) was 64 µg/mL (≈ 27.3 µM) and the “Minimal inhibitory concentration MIC” value (MDRAB 12036) was 64 µg/mL (≈ 27.3 µM). The “Minimal inhibitory concentration MIC” value (MDRST 8007) was 32 µg/mL (≈ 13.7 µM), the “Minimal inhibitory concentration MIC” value (B. subtilis) was >128 µg/mL and the “Minimal inhibitory concentration MIC” value (S. aureus) was >128 µg/mL. For the same compound, the “Synergistic effect of antibacterial activity with existing antibiotics compared with PapMA-1” value (E. coli [3]; E. coli and MDREC1229) was “higher level than the PapMA-1 peptide”, the “Antibiotic MIC, Erythromycin” value (E. coli [3]; erythromycin combined with peptide at 1 μg/ml) was 64 µg/mL and the “Antibiotic MIC, Erythromycin” value (E. coli [3]; erythromycin combined with peptide at 2 μg/ml) was 64 µg/mL. For the same compound, the “Antibiotic MIC, Erythromycin” value (E. coli [3]; erythromycin combined with peptide at 4 μg/ml) was 8 µg/mL, the “Antibiotic MIC, Erythromycin” value (E. coli [3]; erythromycin combined with peptide at 6 μg/ml) was 4 µg/mL and the “Antibiotic MIC, Erythromycin” value (E. coli [3]; erythromycin combined with peptide at 8 μg/ml) was 0.5 µg/mL. The “Antibiotic MIC, Erythromycin” value (E. coli [3]; erythromycin combined with peptide at 16 μg/ml) was 0.25 µg/mL, the “Antibiotic MIC, Erythromycin” value (E. coli [3]; erythromycin combined with peptide at 32 μg/ml) was 0.125 µg/mL and the “Antibiotic MIC, Erythromycin” value (E. coli [3]; erythromycin combined with peptide at 64 μg/ml) was 0 µg/mL. For the same compound, the “Antibiotic MIC, Linezolid” value (E. coli [3]; linezolid combined with peptide at 1 μg/ml) was >128 µg/mL, the “Antibiotic MIC, Linezolid” value (E. coli [3]; linezolid combined with peptide at 2 μg/ml) was >128 µg/mL and the “Antibiotic MIC, Linezolid” value (E. coli [3]; linezolid combined with peptide at 4 μg/ml) was 32 µg/mL. For the same compound, the “Antibiotic MIC, Linezolid” value (E. coli [3]; linezolid combined with peptide at 6 μg/ml) was 8 µg/mL, the “Antibiotic MIC, Linezolid” value (E. coli [3]; linezolid combined with peptide at 8 μg/ml) was 8 µg/mL and the “Antibiotic MIC, Linezolid” value (E. coli [3]; linezolid combined with peptide at 16 μg/ml) was 2 µg/mL. For the same compound, the “Antibiotic MIC, Linezolid” value (E. coli [3]; linezolid combined with peptide at 32 μg/ml) was 2 µg/mL, the “Antibiotic MIC, Linezolid” value (E. coli [3]; linezolid combined with peptide at 64 μg/ml) was 0 µg/mL and the “Antibiotic MIC, Vancomycin” value (E. coli [3]; vancomycin combined with peptide at 1 μg/ml) was >128 µg/mL. For the same compound, the “Antibiotic MIC, Vancomycin” value (E. coli [3]; vancomycin combined with peptide at 2 μg/ml) was >128 µg/mL, the “Antibiotic MIC, Vancomycin” value (E. coli [3]; vancomycin combined with peptide at 4 μg/ml) was 32 µg/mL and the “Antibiotic MIC, Vancomycin” value (E. coli [3]; vancomycin combined with peptide at 6 μg/ml) was 16 µg/mL. For the same compound, the “Antibiotic MIC, Vancomycin” value (E. coli [3]; vancomycin combined with peptide at 8 μg/ml) was 8 µg/mL, the “Antibiotic MIC, Vancomycin” value (E. coli [3]; vancomycin combined with peptide at 16 μg/ml) was 2 µg/mL and the “Antibiotic MIC, Vancomycin” value (E. coli [3]; vancomycin combined with peptide at 32 μg/ml) was 1 µg/mL. The “Antibiotic MIC, Vancomycin” value (E. coli [3]; vancomycin combined with peptide at 64 μg/ml) was 0 µg/mL, the “Antibiotic MIC, Erythromycin” value (MDREC 1229 [4]; [5]) was 64 µg/mL and the “Antibiotic MIC, Linezolid” value (MDREC 1229 [4]; [5]) was 128 µg/mL. For the same compound, the “Antibiotic MIC, Vancomycin” value (MDREC 1229 [4]; [5]) was >128 µg/mL, the “Antibiotic MIC, Erythromycin” value (MDREC 1229 [4]; [6]) was 32 µg/mL and the “Antibiotic MIC, Linezolid” value (MDREC 1229 [4]; [6]) was 64 µg/mL. For the same compound, the “Antibiotic MIC, Vancomycin” value (MDREC 1229 [4]; [6]) was >128 µg/mL, the “Antibiotic MIC, Erythromycin” value (MDREC 1229 [4]; [7]) was 8 µg/mL and the “Antibiotic MIC, Linezolid” value (MDREC 1229 [4]; [7]) was 32 µg/mL. For the same compound, the “Antibiotic MIC, Vancomycin” value (MDREC 1229 [4]; [7]) was >128 µg/mL, the “Antibiotic MIC, Erythromycin” value (MDREC 1229 [4]; [8]) was 2 µg/mL and the “Antibiotic MIC, Linezolid” value (MDREC 1229 [4]; [8]) was 8 µg/mL. The “Antibiotic MIC, Vancomycin” value (MDREC 1229 [4]; [8]) was 64 µg/mL, the “Antibiotic MIC, Erythromycin” value (MDREC 1229 [4]; [9]) was 1 µg/mL and the “Antibiotic MIC, Linezolid” value (MDREC 1229 [4]; [9]) was 8 µg/mL. The “Antibiotic MIC, Vancomycin” value (MDREC 1229 [4]; [9]) was 16 µg/mL, the “Antibiotic MIC, Erythromycin” value (MDREC 1229 [4]; [10]) was 0.25 µg/mL and the “Antibiotic MIC, Linezolid” value (MDREC 1229 [4]; [10]) was 4 µg/mL. The “Antibiotic MIC, Vancomycin” value (MDREC 1229 [4]; [10]) was 4 µg/mL, the “Antibiotic MIC, Erythromycin” value (MDREC 1229 [4]; [11]) was 0.125 µg/mL and the “Antibiotic MIC, Linezolid” value (MDREC 1229 [4]; [11]) was 1 µg/mL. For the same compound, the “Antibiotic MIC, Vancomycin” value (MDREC 1229 [4]; [11]) was 2 µg/mL, the “Antibiotic MIC, Erythromycin” value (MDREC 1229 [4]; [12]) was 0 µg/mL and the “Antibiotic MIC, Linezolid” value (MDREC 1229 [4]; [12]) was 0 µg/mL.
